Among the data in ChEMBL document CHEMBL1137892, “Pyrimidine methyl anilines: selective potentiators for the metabotropic glutamate 2 receptor” (Bioorg Med Chem Lett, 2004) are ED50, Potentiation and Concentration values, retold here.

Holding throughout (assay type): functional
The target of experiment [1] is Metabotropic glutamate receptor 2 (Homo sapiens) (UniProt Q14416). The experiment is described as follows: Binding potency against Metabotropic glutamate receptor 2 was determined by measuring the concentration required to activate 50% of [35S]GTP-gamma-S, in presence of 10 uM glutamate.
Chain of Metabotropic glutamate receptor 2 (Homo sapiens) (Q14416 19-872 limits assumed): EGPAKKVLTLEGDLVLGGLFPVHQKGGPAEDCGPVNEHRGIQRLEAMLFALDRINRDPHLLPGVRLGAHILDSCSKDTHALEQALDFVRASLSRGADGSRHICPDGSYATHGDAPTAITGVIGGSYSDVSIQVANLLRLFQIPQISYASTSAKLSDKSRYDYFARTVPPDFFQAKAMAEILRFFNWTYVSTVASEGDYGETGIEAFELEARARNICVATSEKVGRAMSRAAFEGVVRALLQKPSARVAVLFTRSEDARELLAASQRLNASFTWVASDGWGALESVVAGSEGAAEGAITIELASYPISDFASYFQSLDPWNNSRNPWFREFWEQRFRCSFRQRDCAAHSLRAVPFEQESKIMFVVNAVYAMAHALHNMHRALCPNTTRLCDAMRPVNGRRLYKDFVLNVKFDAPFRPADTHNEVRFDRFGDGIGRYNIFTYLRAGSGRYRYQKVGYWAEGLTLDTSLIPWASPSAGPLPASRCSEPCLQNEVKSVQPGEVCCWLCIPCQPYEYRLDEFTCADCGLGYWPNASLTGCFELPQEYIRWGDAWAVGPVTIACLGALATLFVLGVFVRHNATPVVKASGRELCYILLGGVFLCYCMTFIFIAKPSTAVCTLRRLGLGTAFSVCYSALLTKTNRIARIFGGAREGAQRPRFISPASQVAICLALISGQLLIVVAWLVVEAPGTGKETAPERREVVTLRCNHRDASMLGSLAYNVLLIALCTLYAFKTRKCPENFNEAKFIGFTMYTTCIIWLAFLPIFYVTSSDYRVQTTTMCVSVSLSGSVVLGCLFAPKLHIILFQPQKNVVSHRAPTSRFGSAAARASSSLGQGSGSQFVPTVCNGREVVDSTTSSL
Experiment [2] has the same target. The experiment is described as follows: Level of potentiation of Metabotropic glutamate receptor 2 was determined by measuring the percentage activation of [35S]GTP-gamma-S, in the presence of 10 uM glutamate.
The target in experiment [3] is Metabotropic glutamate receptor 3 (Homo sapiens) (UniProt Q14832). Nature of the experiment: Binding potency against Metabotropic glutamate receptor 3 was determined by measuring the concentration required to activate 50% of [35S]GTP-gamma-S, in presence of glutamate; inactive. For orientation: Binding of GTPγS marks nucleotide exchange on a G protein.
Chain of Metabotropic glutamate receptor 3 (Homo sapiens) (Q14832 23-879 limits assumed): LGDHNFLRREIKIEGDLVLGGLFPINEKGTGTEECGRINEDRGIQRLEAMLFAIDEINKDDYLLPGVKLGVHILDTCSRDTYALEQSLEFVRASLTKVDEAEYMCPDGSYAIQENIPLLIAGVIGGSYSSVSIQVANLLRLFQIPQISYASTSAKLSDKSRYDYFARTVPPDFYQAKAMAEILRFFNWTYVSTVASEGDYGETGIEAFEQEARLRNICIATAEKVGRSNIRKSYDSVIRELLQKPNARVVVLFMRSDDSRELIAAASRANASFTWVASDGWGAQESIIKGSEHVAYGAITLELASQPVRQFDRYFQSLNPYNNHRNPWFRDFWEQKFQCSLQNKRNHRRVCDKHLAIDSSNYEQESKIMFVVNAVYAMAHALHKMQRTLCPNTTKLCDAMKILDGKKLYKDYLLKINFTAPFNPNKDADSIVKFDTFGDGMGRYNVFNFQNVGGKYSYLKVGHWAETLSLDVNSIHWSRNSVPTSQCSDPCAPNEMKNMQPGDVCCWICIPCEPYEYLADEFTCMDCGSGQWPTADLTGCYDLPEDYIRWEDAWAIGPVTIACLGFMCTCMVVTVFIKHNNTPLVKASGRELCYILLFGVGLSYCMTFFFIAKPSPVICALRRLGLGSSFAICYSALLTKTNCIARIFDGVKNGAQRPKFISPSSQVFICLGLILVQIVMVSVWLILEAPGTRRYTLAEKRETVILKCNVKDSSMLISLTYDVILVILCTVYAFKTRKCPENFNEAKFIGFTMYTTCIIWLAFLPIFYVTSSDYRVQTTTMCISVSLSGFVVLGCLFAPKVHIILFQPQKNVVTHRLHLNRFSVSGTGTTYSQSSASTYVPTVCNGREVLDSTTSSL

Each structure is given as a SMILES string.

`FC(F)(F)c1ccccc1Cc1cccc(NCc2cnc3ccccc3c2)c1`: the ED50 in experiment [1] came to 1000 nM. In experiment [2], the Potentiation is 18%.

For `O=S(=O)(CC(F)(F)F)N(Cc1cncnc1)c1cccc(Oc2ccccc2Br)c1`, the ED50 in experiment [1] came to 1100 nM. The Potentiation in experiment [2] was 40%.

Regarding `O=C(OCc1cccc(N(Cc2cncnc2)S(=O)(=O)CC(F)(F)F)c1)c1ccccc1`, in experiment [1], the ED50 came to 810 nM. Also, the Potentiation in experiment [2] came to 39%.

Consider `O=S(=O)(CC(F)(F)F)N(Cc1cncnc1)c1cccc(COc2ccccc2)c1`, for which the ED50 in experiment [1] turned out to be 1200 nM. The Potentiation in experiment [2] came out at 51%.

As for `CCCC(C)Oc1cccc(NCc2cnc3ccccc3c2)c1` (stereo unspecified), the ED50 in experiment [1] came out at 4300 nM. The Potentiation in experiment [2] stood at 41%.

`O=S(=O)(CC(F)(F)F)N(Cc1cncnc1)c1cccc(Oc2ccccc2F)c1`: in experiment [1], the ED50 was 860 nM. Moreover, the Potentiation in experiment [2] was determined as 46%.

For the molecule `c1ccc(NCc2cncnc2)cc1`, the ED50 in experiment [1] came out at 9600 nM. In experiment [2], the Potentiation was 68%.

On to `Cc1ccccc1Oc1cccc(N(Cc2cncnc2)S(=O)(=O)CC(F)(F)F)c1`, for which, in experiment [1], the ED50 was 630 nM. For the same molecule, the Potentiation in experiment [2] amounted to 53%.

Regarding `O=S(=O)(CC(F)(F)F)N(Cc1cncnc1)c1cccc(Oc2ccccc2)c1`, in experiment [1], the ED50 was found to be 660 nM. Further, the Potentiation in experiment [2] was 52%.

Turning to `COc1ccccc1Oc1ccc(N(Cc2cccnc2)S(=O)(=O)CC(F)(F)F)cc1`, the ED50 in experiment [1] amounted to 1700 nM. For the same molecule, the Potentiation in experiment [2] turned out to be 52%.

With `CCCC(C)Oc1cccc(N(Cc2cncnc2)S(=O)(=O)CC(F)(F)F)c1` (stereo unspecified), the ED50 in experiment [1] stood at 350 nM. Also, in experiment [2], the Potentiation is 31%. In addition, in experiment [3], the Concentration came to 10 µM.

As for `O=S(=O)(CC(F)(F)F)N(Cc1cncnc1)c1cccc(OC2CCCC2)c1`, the ED50 in experiment [1] turned out to be 840 nM. For the same molecule, the Potentiation in experiment [2] stood at 60%.

As to `CC(C)(C)[Si](C)(C)OCc1cccc(N(Cc2cncnc2)S(=O)(=O)CC(F)(F)F)c1`, the ED50 in experiment [1] stood at 660 nM. Moreover, the Potentiation in experiment [2] amounted to 48%.

For the molecule `FC(F)(F)Oc1cccc(NCc2cnc3ccccc3c2)c1`, in experiment [1], the ED50 came out at 5200 nM. Also, the Potentiation in experiment [2] amounted to 40%.

With `O=S(=O)(CC(F)(F)F)N(Cc1cncnc1)c1ccc(Oc2ccccc2)cc1`, in experiment [1], the ED50 is 560 nM. For the same molecule, in experiment [2], the Potentiation is 37%.

For the molecule `FC(F)(F)Oc1cccc(NCc2cncnc2)c1`, in experiment [1], the ED50 was 19000 nM. The Potentiation in experiment [2] was found to be 26%.

For `COc1ccccc1Oc1cccc(N(Cc2cncnc2)S(=O)(=O)CC(F)(F)F)c1`, in experiment [1], the ED50 is 760 nM. Further, the Potentiation in experiment [2] turned out to be 62%.

On to `O=S(=O)(CC(F)(F)F)N(Cc1cncnc1)c1cccc(Cc2ccccc2)c1`, for which the ED50 in experiment [1] was found to be 540 nM. Also, the Potentiation in experiment [2] is 43%.

With `O=S(=O)(CC(F)(F)F)N(Cc1cncnc1)c1cccc(Oc2ccccc2C(F)(F)F)c1`, the ED50 in experiment [1] worked out at 970 nM. Moreover, the Potentiation in experiment [2] came out at 73%.

Take `c1ccc(Cc2cccc(NCc3cncnc3)c2)cc1`: the ED50 in experiment [1] stood at 710 nM. For the same molecule, in experiment [2], the Potentiation came out at 31%.
